Laboratory results: US20180238860A1, “INDIVIDUAL METHOD PREDICTIVE OF THE DNA-BREAKING GENOTOXIC EFFECTS OF CHEMICAL OR BIOCHEMICAL AGENTS” (priority 2015, published 2018)

Key:
Assay type in all cases: cell-based, human
[1] = test system: HMEC cells; experiment: Micronuclei per 100 cells 24 h after contacting, Table 4 lower part (HMEC); conditions: line cell blank (below Hasp)
Experimental: (§1) In one embodiment, on receipt, the tissue sample (typically the biopsy) is established in the form of an amplifiable cell line without a viral or chemical transformation agent according to an ancillary procedure well known to culture laboratories, as underlined by the publication of Elkind et al. “The radiobiology of cultured mammalian cell”, Gordon and Breach (1967). Once the number of cells is sufficient (typically after 1 to 3 weeks), the first experiments are carried out using the process according to the invention. A cell sample is prepared: The cells are inoculated on glass coverslips in Petri dishes. A portion of these coverslips are contaminated with metals or pesticides or any other DNA-breaking chemical or biochemical agent at different concentrations. A further portion is not contaminated; it represents the spontaneous state. During contamination, the cells remain in the culture incubator at 37° C.
(§2) the cells are fixed in 3% paraformaldehyde and 2% sucrose for 15 minutes at ambient temperature and permeabilized in 20 mM HEPES buffer solution (4-(2-hydroxyethyl)-1-piperazine ethane sulfonic acid) at pH 7.4, 50 mM NaCl, 3 mM MgCl2, 300 mM sucrose, 0.5% Triton X-100 (a non-ionic surfactant having the formula t-Oct-C6H4-(OCH2CH2)×OH where x=9-10, CAS No. 9002-93-1, supplied for example by Sigma Aldrich) for 3 minutes. The glass coverslips are then washed in phosphate buffer saline (known as the acronym PBS) before immunological staining. The incubation took place for 40 min at 37° C. in PBS supplemented with 2% bovine serum albumin (known as the acronym BSA or fraction V, supplied for example by Sigma Aldrich) and was followed by a wash with PBS. Anti-pH2AX primary antibodies are used at a concentration of 1:800. The incubations with anti-mouse FITC or anti-rabbit TRITC secondary antibodies (1:100, supplied by Sigma Aldrich) were performed at 37° C. in 2% BSA for 20 minutes. Glass coverslips were treated with Vectashield™ containing DAPI (4,6-Diamidino-2-phenylindole) to label the nucleus. Staining with DAPI also makes it possible, indirectly, to determine the number of cells in phase G1 (nuclei with homogenous DAPI staining), in phase S (nuclei with numerous pH2AX foci), in phase G2 (nuclei with heterogeneous DAPI staining) and metaphases (visible chromosomes).
(§3) Counterstaining with DAPI (a DNA marker known to those skilled in the art) makes it possible to locate the nucleus to situate the cytoplasmic or nuclear location to quantify the micronuclei, which are complementary cell markers to the data on the foci.
(§4) The tables hereinafter summarize the results of numerous experiments which were carried out as described in the “Detailed description” section above.
(§5) In tables 3 and 4, “pH2AX” corresponds to the mean number of nuclear foci obtained with the marker pH2AX, 24 hours after contacting the cell sample with the chemical agent at the concentration C (NpH2AX(24 h, C)), and where “Micronuclei” corresponds to the mean number of micronuclei observed per 100 cells 24 hours after contacting the cell sample with the chemical agent at the concentration C(NMN(24 h, C)).

[2] = test system: HMEC cells; experiment: pH2AX foci 24 h after contacting, Table 4 lower part (HMEC endothelial cells); conditions: line cell blank (below Hasp), 24 hours after contacting
Experimental: as §1
(§6) For the contaminated cells, characteristics are acquired corresponding to the state after an incubation time with the DNA-breaking chemical or biochemical agent. Said characteristics are represented by foci corresponding to the marker pH2AX. The cells on glass coverslips are then fixed, lysed and hybridized. The following procedure, known per se (Bodgi et al, “A single formula to describe radiation-induced protein relocalization: towards a mathematical definition of individual radiosensitivity”, J Theor Biol. 21 p 333:135-45.2013):
as §2
(§7) The results are acquired using these coverslips on an immunofluorescence microscope (Olympus model for example). The reading may be direct (typically by counting the foci on at least 50 cells in G0/G1 for each point) or using dedicated image analysis software, or on an automated microscope; preferably the software or automated microscope methods are calibrated with manual determinations.
as §4, §5

[3] = test system: Hasp (spinal cord astrocyte cells); experiment: Micronuclei per 100 cells 24 h after contacting, Hasp
Experimental: as §1, §2, §3, §4, §5
(§8) Table 4 presents a detection of number of pH2AX foci and number of micronuclei 24 hours after contacting control nervous system cell lines Ha (astrocyte cells), Hah (hippocampus astrocyte cells) and Hasp (spinal cord astrocyte cells) with a metallic compound (AlCl3, Cu, CuCl2, CuSO4, Pb(NO3)2, CdCl2, Cd-acetate or Cd-acetate-citrate) according to the concentration of said metallic compound used.

[4] = test system: Hah (hippocampus astrocyte cells); experiment: Micronuclei per 100 cells 24 h after contacting, Hah
Experimental: as §1, §2, §3, §4, §5, §8

[5] = test system: Ha (astrocyte cells); experiment: pH2AX foci 24 h after contacting, Ha astrocyte cells; conditions: Ha, 24 hours after contacting
Experimental: as §1, §6, §2, §7, §4
(§9) In tables 3 and 4, “pH2AX” corresponds to the mean number of nuclear foci obtained with the marker pH2AX, 24 hours after contacting the cell sample with the chemical agent at the concentration C (NpH2AX(24 h, C)), and where “Micronuclei” corresponds to the mean number of micronuclei observed per 100 cells 24 hours after contacting the cell sample with the chemical agent at the concentration C(NMN(24 h, C)). […]

[6] = test system: Hah (hippocampus astrocyte cells); experiment: pH2AX foci 24 h after contacting, Hah hippocampus astrocyte cells
Experimental: as §1, §6, §2, §7, §4, §9

[7] = test system: Hasp (spinal cord astrocyte cells); experiment: pH2AX foci 24 h after contacting, Hasp spinal cord astrocyte cells
Experimental: as §1, §6, §2, §7, §4, §9

[8] = test system: Ha (astrocyte cells); experiment: Micronuclei per 100 cells 24 h after contacting, Ha astrocyte cells
Experimental: as §1, §2, §3, §4, §5, §8

[9] = test system: 1BR3 cells; experiment: Micronuclei per 100 cells 24 h after contacting, 1BR3
Experimental: as §1, §2, §3, §4, §5

[10] = test system: 1BR3 (control cells); experiment: pH2AX foci immunofluorescence 24 h after contacting, 1BR3 control fibroblasts; conditions: 1BR3, 24 hours after contacting (Table 3)
Experimental: as §1, §6, §2, §7
Commercial 1BR3 and 149 BR control fibroblasts were amplified according to the recommendations of the supplier (SIGMA-ALDRICH) until the number of cells sought was obtained. After obtaining a sufficient number of cells (generally after one to 3 weeks), the first experiments were conducted using the process according to the invention. The cells were inoculated on glass coverslips in Petri dishes.
The acquisition of the results was carried out using these coverslips on an immunofluorescence microscope (Olympus model). The reading was performed directly by counting the foci obtained with the marker pH2AX on at least 50 cells in G0/G1 for each point or using dedicated image analysis software (imageJ). […]

O=S(=O)([O-])[O-].[Cu+2] [CuSO4]
Micronuclei ([1]; 3 μM): 3 per 100 cells
Micronuclei ([1]; 10 μM): 5 per 100 cells
Micronuclei ([1]; 30 μM): 4.7 per 100 cells
Micronuclei ([1]; 100 μM): 5.3 per 100 cells
Micronuclei ([1]; 300 μM): 9.3 per 100 cells
Micronuclei ([1]; 1000 μM): 4 per 100 cells
pH2AX ([2]; 3 μM): 1.9 foci
pH2AX ([2]; 10 μM): 2.3 foci
pH2AX ([2]; 30 μM): 3.4 foci
pH2AX ([2]; 100 μM): 6.4 foci
pH2AX ([2]; 300 μM): 20.1 foci
pH2AX ([2]; 1000 μM): 30.2 foci

[Cu] [Cu]
Micronuclei ([3]; 10 μM): 4 per 100 cells
Micronuclei ([3]; 30 μM): 7 per 100 cells
Micronuclei ([3]; 100 μM): 9 per 100 cells
Micronuclei ([3]; 300 μM): 10 per 100 cells
Micronuclei ([3]; 1000 μM): 16 per 100 cells
Micronuclei ([4]; 10 μM): 6 per 100 cells
Micronuclei ([4]; 30 μM): 10.7 per 100 cells
Micronuclei ([4]; 100 μM): 20.7 per 100 cells
Micronuclei ([4]; 300 μM): 46.7 per 100 cells
Micronuclei ([4]; 1000 μM): 73.3 per 100 cells
pH2AX ([5]; 10 μM): 0.3 foci
pH2AX ([5]; 30 μM): 0.62 foci
pH2AX ([5]; 100 μM): 2.55 foci
pH2AX ([5]; 300 μM): 0 foci
pH2AX ([5]; 1000 μM): 0 foci
pH2AX ([6]; 10 μM): 1.01 foci
pH2AX ([6]; 30 μM): 1.87 foci
pH2AX ([6]; 100 μM): 2.62 foci
pH2AX ([6]; 300 μM): 5.45 foci
pH2AX ([6]; 1000 μM): 6.61 foci
pH2AX ([7]; 10 μM): 0.29 foci
pH2AX ([7]; 30 μM): 0.64 foci
pH2AX ([7]; 100 μM): 1.13 foci
pH2AX ([7]; 300 μM): 1.78 foci
pH2AX ([7]; 1000 μM): 2.36 foci
Micronuclei ([8]; 10 μM): 4 per 100 cells
Micronuclei ([8]; 30 μM): 5 per 100 cells
Micronuclei ([8]; 100 μM): 13 per 100 cells
Micronuclei ([8]; 300 μM): 20 per 100 cells
Micronuclei ([8]; 1000 μM): 50 per 100 cells

Oc1c(Cl)c(Cl)c(Cl)c(Cl)c1Cl [PCP]
Micronuclei ([9]; 0.3 μM): 2 per 100 cells
Micronuclei ([9]; 3 μM): 4 per 100 cells
Micronuclei ([9]; 10 μM): 10 per 100 cells
Micronuclei ([9]; 50 μM): 10 per 100 cells
Micronuclei ([9]; 100 μM): 20 per 100 cells
pH2AX ([10]; 0.3 μM): 1.2 foci
pH2AX ([10]; 10 μM): 1.5 foci
pH2AX ([10]; 30 μM): 1.9 foci
pH2AX ([10]; 100 μM): 4.3 foci

Cd-acetate-citrate
pH2AX ([2]; 10 μM): 1 foci
pH2AX ([2]; 30 μM): 4.75 foci
pH2AX ([2]; 100 μM): 7 foci
